The nature of data set [1]: Compatibility of acetic acid sources with the gelatin and plasticizer matrix. Format: physicochemical. The following applies: acetic acid source tested individually. On the procedure:
Various sources of acetic acid were tested in the laboratory to determine their compatibility with the gelatin and plasticizer matrix.

The conditions of data set [2]: in softgel liquid fill materials. An excerpt:
The Bragg brand of apple cider vinegar hardshell capsules include sodium diacetate.

Turning to `CC(=O)[O-].CC(=O)[O-].[Ca+2]` [Calcium acetate], in data set [1], the “compatibility with the gelatin and plasticizer matrix (reaction observed)” value (shortened to “compatibility”) is “partially gelled up and liquified”.
Same read-out and setting: the value for `CC(=O)O.NCCCC[C@H](N)C(=O)O` [Lysine acetate powder, Lysine acetate] was “completely liquefied”.
In the case of `CC(=O)O.CC(=O)[O-].[Na+]` [Sodium diacetate], the “effect on softgel shell” value in data set [2] was “causes holes to form in the softgel shell”. In data set [1], the “compatibility” value was “corroding a hole in the gelatin and causing leakage of the fill material”.
On to `CC(=O)[O-].CC(=O)[O-].[Zn+2]` [Zinc acetate], for which, in data set [1], the “compatibility” value is recorded as “least reaction”.
